Measurements: paper PMC8838197, “Coumarin-Resveratrol-Inspired Hybrids as Monoamine Oxidase B Inhibitors: 3-Phenylcoumarin versus trans-6-Styrylcoumarin” (Molecules, 2022)
Read-outs that look alike come from different tables or passages of the source.

Assays:
hMAO-A = biological target: T1, hMAO-A (Homo sapiens, UniProt P21397); assay: hMAO-A inhibition, Amplex Red MAO assay, recombinant enzyme
T1 sequence (P21397 1-527): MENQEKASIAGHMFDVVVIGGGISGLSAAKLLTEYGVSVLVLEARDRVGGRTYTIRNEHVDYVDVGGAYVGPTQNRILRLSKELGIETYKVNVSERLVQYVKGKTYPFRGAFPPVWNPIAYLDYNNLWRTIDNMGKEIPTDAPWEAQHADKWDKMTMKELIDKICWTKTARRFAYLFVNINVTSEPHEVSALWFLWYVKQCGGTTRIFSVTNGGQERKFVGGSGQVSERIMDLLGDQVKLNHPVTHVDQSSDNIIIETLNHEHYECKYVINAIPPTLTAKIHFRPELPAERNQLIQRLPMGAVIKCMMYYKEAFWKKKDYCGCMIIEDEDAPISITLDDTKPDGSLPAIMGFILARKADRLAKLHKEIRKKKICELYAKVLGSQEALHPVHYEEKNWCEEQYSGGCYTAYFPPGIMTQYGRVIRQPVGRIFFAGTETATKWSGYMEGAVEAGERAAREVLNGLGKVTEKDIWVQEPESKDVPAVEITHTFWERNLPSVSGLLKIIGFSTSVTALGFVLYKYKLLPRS

hMAO-B = biological target: T2, hMAO-B (Homo sapiens, UniProt P27338); assay: hMAO-B inhibition, Amplex Red MAO assay, recombinant enzyme
T2 sequence (P27338 1-520): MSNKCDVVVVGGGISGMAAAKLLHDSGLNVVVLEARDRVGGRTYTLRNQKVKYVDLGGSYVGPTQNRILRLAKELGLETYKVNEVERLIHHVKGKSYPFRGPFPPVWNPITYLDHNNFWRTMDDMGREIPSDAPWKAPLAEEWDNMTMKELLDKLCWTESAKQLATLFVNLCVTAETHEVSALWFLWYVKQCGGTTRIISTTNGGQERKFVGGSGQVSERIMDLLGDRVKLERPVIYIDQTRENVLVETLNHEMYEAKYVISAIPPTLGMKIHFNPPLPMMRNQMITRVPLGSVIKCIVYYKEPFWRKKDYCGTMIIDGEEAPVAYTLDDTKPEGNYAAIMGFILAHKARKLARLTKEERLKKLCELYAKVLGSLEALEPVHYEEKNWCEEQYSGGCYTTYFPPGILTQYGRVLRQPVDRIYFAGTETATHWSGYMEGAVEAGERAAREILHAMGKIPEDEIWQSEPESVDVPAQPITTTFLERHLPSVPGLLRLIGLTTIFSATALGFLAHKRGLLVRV

MAO-A = details: cited from earlier work; for pIC50 MAO-A: Table S8; for MAO-A pIC50: data set compounds
MAO-B = tested on: MAO-B; design: pIC50 MAO-B: unit not given here; details: cited from earlier work

SMILES	pIC50 MAO-A (MAO-A)	pIC50 MAO-B (MAO-B; Table S8)	further results
O=c1oc2ccccc2cc1-c1ccccc1 [3-Phenylcoumarin]	–	–	IC50 (hMAO-A): > 100 µM; S.I. (hMAO-B selectivity index = IC50 (hMAO-A)/IC50 (hMAO-B)) (hMAO-B): >8.47; pIC50 MAO-B Exp. (hMAO-B; Table 3): 4.928; IC50 (hMAO-B; read-out: IC50 hMAO-B, recombinant hMAO-B expressed in baculovirus-infected BTI insect cells, n = 5): 11.8 µM
COc1ccc(-c2cc3cccc(C)c3oc2=O)cc1 [Compound 37]	4.666	8.465	MAO-A pIC50 (MAO-A): < 5.0
Cc1ccc(C(=O)Nc2cc3cc(C)ccc3oc2=O)cc1 [Compound 41]	4.337	6.77	–
COc1ccc(-c2cc3cc([N+](=O)[O-])ccc3oc2=O)cc1 [Compound 54]	5.932	8.523	–
O=c1oc2ccc(O)cc2cc1-c1ccccc1 [Compound 63]	4.524	5.47	–
O=c1oc2ccc(O)cc2cc1-c1ccc(Br)cc1 [Compound 68]	4.892	7.495	–
O=c1oc2ccc(OC3CCCC3)cc2cc1-c1cccc(Br)c1 [Compound 72]	4.354	5.747	MAO-A pIC50 (MAO-A): < 5.0
O=C(O)COc1ccc2oc(=O)c(-c3ccc(Br)cc3)cc2c1 [Compound 73]	4.898	8.154	MAO-A pIC50 (MAO-A): < 5.0; MAO-B pIC50 (MAO-B; data set compounds): > 6.5
O=c1oc2ccc3ccccc3c2cc1-c1ccc(O)cc1 [Compound 81]	4.626	6.337	–
O=c1oc2ccc3ccccc3c2cc1-c1cccc(O)c1 [Compound 82]	4.591	5.296	Experimental pIC50 (MAO-A inhibitors) (MAO-A; Table S12): 4.354
Cc1ccc2oc(=O)c(-c3ccc([N+](=O)[O-])cc3)cc2c1 [Compound 88]	5.379	8.678	–
O=c1oc2cc(O)ccc2cc1-c1ccsc1 [Compound 143]	5.118	5.071	–
O=c1oc2c(O)c(O)ccc2cc1-c1ccsc1 [Compound 144]	5.879	5.323	–
O=c1oc2cc(O)ccc2cc1-c1cc(Br)cs1 [Compound 146]	5.038	6.854	–
O=c1oc2c(O)c(O)ccc2cc1-c1cc(Br)cs1 [Compound 147]	5.216	4.663	–
Cc1cc(=O)oc2cc(NC(=O)C(C)C)ccc12 [Compound 155]	4.611	4.937	–
Cc1cc(=O)oc2cc(NC(=O)CC(C)C)ccc12 [Compound 156]	4.339	6.357	–
Cc1cc(=O)oc2cc(NC(=O)CBr)ccc12 [Compound 158]	4.107	In	MAO-A pIC50 (MAO-A): < 5.0; IC50 MAO-B (MAO-B; Table S8): In
Cc1cc(=O)oc2cc(NC(=O)c3ccco3)ccc12 [Compound 163]	4.521	5.3	MAO-A pIC50 (MAO-A): < 5.0
O=c1ccc2cc(/C=C/c3ccccc3)ccc2o1 [trans-6-Styrylcoumarin]	–	–	melting point: 134 to 135 °C; IC50 (hMAO-A): > 100 µM; IC50 (hMAO-B): 0.11 µM; S.I. (hMAO-B selectivity index = IC50 (hMAO-A)/IC50 (hMAO-B)) (hMAO-B): >909.09; times more active on MAO-B than the best compound of the resveratrol derivative series of Kong et al. (hMAO-B; comparison with ref 13): 110; times more active on MAO-B than 3-phenylcoumarin (hMAO-B; ratio of IC50): 107; times more active on MAO-B than trans-resveratrol (hMAO-B; ratio of IC50): 267
